In patent US10793564B2, “Amino acid compounds and methods of use” (Pliant Therapeutics, Inc., priority 2018, dated 2020):

Target: recombinant human integrin αVβ6 (Homo sapiens (Human), UniProt P06756+P18564)
Experiment: Solid phase integrin αVβ6 binding assay
Conditions: inhibition of recombinant TGFβ1 LAP binding to coated integrin, IC50 presented in four ranges, read-out: αvβ6 Inhibition IC50 (nM) - range
Protocol: (§1) Microplates were coated with recombinant human integrin αVβ6 (2 μg/mL) in PBS (100 μL/well 25° C., overnight). The coating solution was removed, washed with wash buffer (0.05% Tween 20; 0.5 mM MnCl2; in 1×TBS). The plate was blocked with 200 μL/well of Block Buffer (1% BSA; 5% sucrose; 0.5 mM MnCl2; in 1×TBS) at 37° C. for 2 h. Dilutions of testing compounds and recombinant TGFβ1 LAP (0.67 μg/mL) in binding buffer (0.05% BSA; 2.5% sucrose; 0.5 mM MnCl2; in 1×TBS) were added. The plate was incubated for 2 hours at 25° C., washed, and incubated for 1 hour with Biotin-Anti-hLAP. Bound antibody was detected by peroxidase-conjugated streptavidin. The IC50 values for testing compounds were calculated by a four-parameter logistic regression.
The compounds tested were compound samples prepared according to procedures described in the Synthetic Examples section, with the stereochemical purity as indicated in the Examples.
as §1, with “A third series of exemplary compounds was selected for testing in the solid phase integrin αVβ6 binding assay. The compounds tested were compound samples prepared according to procedures described in the Synthetic Examples section, with the stereochemical purity as indicated in the Examples. As in Example B1, microplates were” for “Microplates were”, “(0.67 g/mL)” for “(0.67 μg/mL)”

Chain of recombinant human integrin αVβ6 (P06756 31-992): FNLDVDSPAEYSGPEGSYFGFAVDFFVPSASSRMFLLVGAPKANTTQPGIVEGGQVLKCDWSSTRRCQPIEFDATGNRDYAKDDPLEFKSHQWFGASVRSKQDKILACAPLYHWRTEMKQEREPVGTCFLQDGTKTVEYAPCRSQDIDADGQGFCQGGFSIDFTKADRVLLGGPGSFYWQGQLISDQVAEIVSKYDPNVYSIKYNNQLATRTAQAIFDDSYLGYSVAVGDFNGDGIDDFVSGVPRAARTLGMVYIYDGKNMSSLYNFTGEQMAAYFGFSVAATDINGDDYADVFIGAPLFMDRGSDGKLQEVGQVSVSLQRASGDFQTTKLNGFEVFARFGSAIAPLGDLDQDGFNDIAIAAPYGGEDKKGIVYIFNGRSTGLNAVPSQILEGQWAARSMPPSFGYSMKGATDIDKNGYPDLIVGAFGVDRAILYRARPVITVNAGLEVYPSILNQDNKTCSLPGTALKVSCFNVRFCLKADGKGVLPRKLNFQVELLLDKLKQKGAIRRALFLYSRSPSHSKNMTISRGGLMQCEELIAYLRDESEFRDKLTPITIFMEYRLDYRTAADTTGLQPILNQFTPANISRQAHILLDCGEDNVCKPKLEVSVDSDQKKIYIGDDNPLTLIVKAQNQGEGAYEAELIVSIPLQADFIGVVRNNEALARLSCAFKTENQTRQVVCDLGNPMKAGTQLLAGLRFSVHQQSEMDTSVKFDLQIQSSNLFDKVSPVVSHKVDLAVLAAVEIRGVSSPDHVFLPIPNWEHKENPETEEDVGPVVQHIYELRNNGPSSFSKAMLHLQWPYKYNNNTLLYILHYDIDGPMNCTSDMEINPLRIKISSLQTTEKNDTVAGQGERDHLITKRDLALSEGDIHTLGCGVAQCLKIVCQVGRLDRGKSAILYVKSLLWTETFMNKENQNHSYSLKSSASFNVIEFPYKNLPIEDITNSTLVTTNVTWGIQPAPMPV
Chain of recombinant human integrin αVβ6 (P18564 22-707): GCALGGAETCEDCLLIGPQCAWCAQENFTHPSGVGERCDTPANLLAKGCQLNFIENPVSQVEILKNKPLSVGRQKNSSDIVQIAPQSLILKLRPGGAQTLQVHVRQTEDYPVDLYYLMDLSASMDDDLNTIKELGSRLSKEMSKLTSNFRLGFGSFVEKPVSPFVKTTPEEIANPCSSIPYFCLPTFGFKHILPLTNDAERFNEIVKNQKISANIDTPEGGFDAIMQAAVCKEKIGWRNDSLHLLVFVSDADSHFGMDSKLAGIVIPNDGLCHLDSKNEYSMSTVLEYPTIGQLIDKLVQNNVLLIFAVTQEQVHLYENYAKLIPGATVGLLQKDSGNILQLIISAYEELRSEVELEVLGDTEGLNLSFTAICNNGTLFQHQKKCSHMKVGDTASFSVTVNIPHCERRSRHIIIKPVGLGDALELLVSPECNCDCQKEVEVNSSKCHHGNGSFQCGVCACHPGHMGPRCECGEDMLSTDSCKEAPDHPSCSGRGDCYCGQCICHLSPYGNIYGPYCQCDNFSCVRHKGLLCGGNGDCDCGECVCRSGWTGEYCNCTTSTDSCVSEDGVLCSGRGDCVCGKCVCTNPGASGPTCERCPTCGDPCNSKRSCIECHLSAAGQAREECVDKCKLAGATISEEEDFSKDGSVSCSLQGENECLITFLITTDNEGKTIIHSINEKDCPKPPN

First: O=C(O)[C@H](CCN(CCCCc1ccc2c(n1)NCCC2)C1CC1)Nc1cc(C(F)F)ncn1 [Compound 1, (S)-4-(cyclopropyl(4-(5,6,7,8-tetrahydro-1,8-naphthyridin-2-yl)butyl)amino)-2-((6-(difluoromethyl)pyrimidin-4-yl)amino) butanoic Acid]
Second: COCCN(CCCCc1ccc2c(n1)NCCC2)CC[C@H](Nc1cc(C(F)F)ncn1)C(=O)O [Compound 23, (S)-2-((6-(difluoromethyl)pyrimidin-4-yl)amino)-4-((2-methoxyethyl) (4-(5,6,7,8-tetrahydro-1,8-naphthyridin-2-yl)butyl)amino) butanoic Acid]
The IC50 of the first is higher: 250 to 1000 nM for the first, < 50 nM for the second.

First: CC(C)(O)CN(CCCCc1ccc2c(n1)NCCC2)CC[C@H](Nc1ccncn1)C(=O)O [Compound 4, (S)-4-((2-hydroxy-2-methylpropyl) (4-(5,6,7,8-tetrahydro-1,8-naphthyridin-2-yl)butyl)amino)-2-(pyrimidin-4-ylamino) butanoic Acid]
Second: COCCN(CCCCc1ccc2c(n1)NCCC2)CC[C@H](Nc1ccnc(C(F)(F)F)n1)C(=O)O [Compound 24, (S)-4-((2-methoxyethyl) (4-(5,6,7,8-tetrahydro-1,8-naphthyridin-2-yl)butyl)amino)-2-((2-(trifluoromethyl)pyrimidin-4-yl)amino) butanoic Acid]
The IC50 of the first is higher: 50 to 250 nM for the first, < 50 nM for the second. The second is the more potent here.

COCCN(CCCCc1ccc2c(n1)NCCC2)CC[C@H](Nc1ncnc2ccccc12)C(=O)O [Compound 5, (S)-4-((2-methoxyethyl) (4-(5,6,7,8-tetrahydro-1,8-naphthyridin-2-yl)butyl)amino)-2-(quinazolin-4-ylamino) butanoic Acid] and CS(=O)(=O)CCN(CCCCc1ccc2c(n1)NCCC2)CC[C@H](Nc1ncnc2ccccc12)C(=O)O [Compound 27, (S)-4-((2-(methylsulfonyl)ethyl) (4-(5,6,7,8-tetrahydro-1,8-naphthyridin-2-yl)butyl)amino)-2-(quinazolin-4-ylamino) butanoic Acid] cannot be ordered by IC50: < 50 nM for the first, < 50 nM for the second.

Compared with O=C(O)[C@H](CCN(CCCCc1ccc2c(n1)NCCC2)C1CC1)Nc1ncnc2ccccc12 [Compound 6, (S)-4-(cyclopropyl(4-(5,6,7,8-tetrahydro-1,8-naphthyridin-2-yl)butyl)amino)-2-(quinazolin-4-ylamino) butanoic Acid], O=C(O)[C@H](CCN(CCCCc1ccc2c(n1)NCCC2)C1CC(F)(F)C1)Nc1ncnc2ccccc12 [Compound 9, (S)-4-((3,3-difluorocyclobutyl) (4-(5,6,7,8-tetrahydro-1,8-naphthyridin-2-yl)butyl)amino)-2-(quinazolin-4-ylamino) butanoic Acid] is higher in IC50: 50 to 250 nM for the first, > 1000 nM for the second.

COCCN(CCCCc1ccc2c(n1)NCCC2)CC[C@H](Nc1ncnc2cc(F)ccc12)C(=O)O [Compound 7, (S)-2-((7-fluoroquinazolin-4-yl)amino)-4-((2-methoxyethyl) (4-(5,6,7,8-tetrahydro-1,8-naphthyridin-2-yl)butyl)amino) butanoic Acid] and COCCN(CCCCc1ccc2c(n1)NCCC2)CC[C@H](Nc1ncnc2ccc(F)cc12)C(=O)O [Compound 19, (S)-2-((6-fluoroquinazolin-4-yl)amino)-4-((2-methoxyethyl) (4-(5,6,7,8-tetrahydro-1,8-naphthyridin-2-yl)butyl)amino) butanoic Acid] cannot be ordered by IC50: < 50 nM for the first, < 50 nM for the second.

First: O=C(O)[C@H](CCN(CCCCc1ccc2c(n1)NCCC2)CC(F)F)Nc1ncnc2ccccc12 [Compound 8, (S)-4-((2,2-difluoroethyl) (4-(5,6,7,8-tetrahydro-1,8-naphthyridin-2-yl)butyl)amino)-2-(quinazolin-4-ylamino) butanoic Acid]
Second: CO[C@@H](C)CN(CCCCc1ccc2c(n1)NCCC2)CC[C@H](Nc1ncnc2ccccc12)C(=O)O [Compound 25, (S)-4-(((S)-2-methoxypropyl) (4-(5,6,7,8-tetrahydro-1,8-naphthyridin-2-yl)butyl)amino)-2-(quinazolin-4-ylamino) butanoic Acid]
The IC50 of the first is higher: 50 to 250 nM for the first, < 50 nM for the second.

COCCN(CCCCc1ccc2c(n1)NCCC2)CC[C@H](Nc1nc(C)nc2ccccc12)C(=O)O [Compound 10, (S)-4-((2-methoxyethyl) (4-(5,6,7,8-tetrahydro-1,8-naphthyridin-2-yl)butyl)amino)-2-((2-methylquinazolin-4-yl)amino) butanoic Acid] and COCCN(CCCCc1ccc2c(n1)NCCC2)CC[C@H](Nc1nc(C)nc2cc(F)ccc12)C(=O)O [Compound 12, (S)-2-((7-fluoro-2-methylquinazolin-4-yl)amino)-4-((2-methoxyethyl) (4-(5,6,7,8-tetrahydro-1,8-naphthyridin-2-yl)butyl)amino) butanoic Acid] cannot be ordered by IC50: < 50 nM for the first, < 50 nM for the second.

COCCN(CCCCc1ccc2c(n1)NCCC2)CC[C@H](Nc1ncnc2ncccc12)C(=O)O [Compound 11, (S)-4-((2-methoxyethyl) (4-(5,6,7,8-tetrahydro-1,8-naphthyridin-2-yl)butyl)amino)-2-(pyrido[2,3-d]pyrimidin-4-ylamino) butanoic Acid] and COCCN(CCCCc1ccc2c(n1)NCCC2)CC[C@H](Nc1ncnc2cccnc12)C(=O)O [Compound 16, (S)-4-((2-methoxyethyl) (4-(5,6,7,8-tetrahydro-1,8-naphthyridin-2-yl)butyl)amino)-2-(pyrido[3,2-d]pyrimidin-4-ylamino) butanoic Acid] cannot be ordered by IC50: < 50 nM for the first, < 50 nM for the second.

First: COCCN(CCCCc1ccc2c(n1)NCCC2)CC[C@H](Nc1ncnc2cc(C(F)(F)F)ccc12)C(=O)O [Compound 13, (S)-4-((2-methoxyethyl) (4-(5,6,7,8-tetrahydro-1,8-naphthyridin-2-yl)butyl)amino)-2-((7-(trifluoromethyl)quinazolin-4-yl)amino) butanoic Acid]
Second: COCCN(CCCCc1ccc2c(n1)NCCC2)CC[C@H](Nc1ncnc2c(C(F)(F)F)cccc12)C(=O)O [Compound 15, (S)-4-((2-methoxyethyl) (4-(5,6,7,8-tetrahydro-1,8-naphthyridin-2-yl)butyl)amino)-2-((8-(trifluoromethyl)quinazolin-4-yl)amino) butanoic Acid]
The IC50 of the first is higher: 50 to 250 nM for the first, < 50 nM for the second. The second is the more potent here.

COCCN(CCCCc1ccc2c(n1)NCCC2)CC[C@H](Nc1nc(C(F)(F)F)nc2ccccc12)C(=O)O [Compound 14, (S)-4-((2-methoxyethyl) (4-(5,6,7,8-tetrahydro-1,8-naphthyridin-2-yl)butyl)amino)-2-((2-(trifluoromethyl)quinazolin-4-yl)amino) butanoic Acid] and COCCN(CCCCc1ccc2c(n1)NCCC2)CC[C@H](Nc1cc(C)nc(C(F)(F)F)n1)C(=O)O [Compound 26, (S)-4-((2-methoxyethyl) (4-(5,6,7,8-tetrahydro-1,8-naphthyridin-2-yl)butyl)amino)-2-((6-methyl-2-(trifluoromethyl)pyrimidin-4-yl)amino) butanoic Acid] cannot be ordered by IC50: < 50 nM for the first, < 50 nM for the second.

COCCN(CCCCc1ccc2c(n1)NCCC2)CC[C@H](Nc1ncnc2cnccc12)C(=O)O [Compound 17, (S)-4-((2-methoxyethyl) (4-(5,6,7,8-tetrahydro-1,8-naphthyridin-2-yl)butyl)amino)-2-(pyrido[3,4-d]pyrimidin-4-ylamino) butanoic Acid] and COCCN(CCCCc1ccc2c(n1)NCCC2)CC[C@H](Nc1ncnc2cccc(F)c12)C(=O)O [Compound 18, (S)-2-((5-fluoroquinazolin-4-yl)amino)-4-((2-methoxyethyl) (4-(5,6,7,8-tetrahydro-1,8-naphthyridin-2-yl)butyl)amino) butanoic Acid] cannot be ordered by IC50: < 50 nM for the first, < 50 nM for the second.

COCCN(CCCCc1ccc2c(n1)NCCC2)CC[C@H](Nc1ncnc2c(F)cccc12)C(=O)O [Compound 20, (S)-2-((8-fluoroquinazolin-4-yl)amino)-4-((2-methoxyethyl) (4-(5,6,7,8-tetrahydro-1,8-naphthyridin-2-yl)butyl)amino) butanoic Acid] and COCCN(CCCCc1ccc2c(n1)NCCC2)CC[C@H](Nc1ncnc2cc(F)c(F)cc12)C(=O)O [Compound 21, (S)-2-((6,7-difluoroquinazolin-4-yl)amino)-4-((2-methoxyethyl) (4-(5,6,7,8-tetrahydro-1,8-naphthyridin-2-yl)butyl)amino) butanoic Acid] cannot be ordered by IC50: < 50 nM for the first, < 50 nM for the second.

With COCCN(CCCCc1ccc2c(n1)NCCC2)CC[C@H](Nc1cc(C(F)(F)F)nc(C)n1)C(=O)O [Compound 22, (S)-4-((2-methoxyethyl) (4-(5,6,7,8-tetrahydro-1,8-naphthyridin-2-yl)butyl)amino)-2-((2-methyl-6-(trifluoromethyl)pyrimidin-4-yl)amino) butanoic Acid] the IC50 was < 50 nM.
